Laboratory results taken from publication PMC10628124, “Elevator-like movements of prestin mediate outer hair cell electromotility” (Nature Communications, 2023).

Key:
Assay type in all cases: cell-based
zPres [1] = target: T1, zPres (Danio rerio, UniProt Q7T2C4, R505K, form not given); assay: whole-cell patch clamp, oxalate-chloride counter-transport current, CHO cells; settings: 106 mM intracellular oxalate; extracellular chloride; current at 0 mV; GFP fusion
T1 construct: gene slc26a5; full length; C-terminal GFP fusion in CHO cells (pEGFP-N1); in Xenopus oocytes (pGEMHE) with functionally silent R505K; homodimer
T1 sequence (Q7T2C4 1-739 R505K): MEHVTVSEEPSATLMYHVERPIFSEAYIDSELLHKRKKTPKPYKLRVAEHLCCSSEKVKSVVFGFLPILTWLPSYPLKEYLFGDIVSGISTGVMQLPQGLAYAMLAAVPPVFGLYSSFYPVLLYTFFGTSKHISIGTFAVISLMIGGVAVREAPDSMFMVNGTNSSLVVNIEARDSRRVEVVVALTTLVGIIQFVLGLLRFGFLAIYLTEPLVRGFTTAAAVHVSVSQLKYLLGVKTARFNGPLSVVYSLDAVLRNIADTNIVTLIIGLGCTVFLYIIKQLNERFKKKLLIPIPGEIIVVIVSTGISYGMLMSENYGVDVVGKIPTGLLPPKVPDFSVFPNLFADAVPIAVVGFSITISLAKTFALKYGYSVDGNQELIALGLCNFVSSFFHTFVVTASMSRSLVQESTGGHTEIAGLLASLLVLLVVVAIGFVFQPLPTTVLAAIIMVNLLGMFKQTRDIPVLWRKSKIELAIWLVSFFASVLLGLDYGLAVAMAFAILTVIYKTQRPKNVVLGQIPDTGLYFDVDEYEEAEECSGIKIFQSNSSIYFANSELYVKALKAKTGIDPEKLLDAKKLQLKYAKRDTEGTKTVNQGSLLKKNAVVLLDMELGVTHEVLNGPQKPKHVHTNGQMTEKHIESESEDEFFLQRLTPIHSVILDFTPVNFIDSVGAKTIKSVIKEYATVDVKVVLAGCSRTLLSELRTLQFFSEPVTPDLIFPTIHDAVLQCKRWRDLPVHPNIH

zPres [2] = target: T2, zPres (Danio rerio, UniProt Q7T2C4, R505K); assay: whole-cell patch clamp, non-linear capacitance, CHO cells; settings: 10 mM extracellular salicylate; 160 mM intracellular Cl-; pH 7.4; zPres-GFP; inhibition
T2 construct: gene slc26a5; full length; C-terminal GFP fusion in CHO cells (pEGFP-N1); in Xenopus oocytes (pGEMHE) with functionally silent R505K; homodimer
T2 sequence (Q7T2C4 1-739 R505K): T1 sequence (Q7T2C4 1-739 R505K)

rPres = target: T3, rPres (Rattus norvegicus, UniProt Q9EPH0, R150C); assay: voltage-clamp fluorometry, Xenopus oocytes; settings: 10 mM extracellular salicylate; labelled at C150 with MTS-TAMRA; signal suppressed, V1/2 depolarized
T3 construct: gene Slc26a5; full length; C-terminal 6xHis tag in Xenopus oocytes (pGEMHE); homodimer
T3 sequence (Q9EPH0 1-744 R150C): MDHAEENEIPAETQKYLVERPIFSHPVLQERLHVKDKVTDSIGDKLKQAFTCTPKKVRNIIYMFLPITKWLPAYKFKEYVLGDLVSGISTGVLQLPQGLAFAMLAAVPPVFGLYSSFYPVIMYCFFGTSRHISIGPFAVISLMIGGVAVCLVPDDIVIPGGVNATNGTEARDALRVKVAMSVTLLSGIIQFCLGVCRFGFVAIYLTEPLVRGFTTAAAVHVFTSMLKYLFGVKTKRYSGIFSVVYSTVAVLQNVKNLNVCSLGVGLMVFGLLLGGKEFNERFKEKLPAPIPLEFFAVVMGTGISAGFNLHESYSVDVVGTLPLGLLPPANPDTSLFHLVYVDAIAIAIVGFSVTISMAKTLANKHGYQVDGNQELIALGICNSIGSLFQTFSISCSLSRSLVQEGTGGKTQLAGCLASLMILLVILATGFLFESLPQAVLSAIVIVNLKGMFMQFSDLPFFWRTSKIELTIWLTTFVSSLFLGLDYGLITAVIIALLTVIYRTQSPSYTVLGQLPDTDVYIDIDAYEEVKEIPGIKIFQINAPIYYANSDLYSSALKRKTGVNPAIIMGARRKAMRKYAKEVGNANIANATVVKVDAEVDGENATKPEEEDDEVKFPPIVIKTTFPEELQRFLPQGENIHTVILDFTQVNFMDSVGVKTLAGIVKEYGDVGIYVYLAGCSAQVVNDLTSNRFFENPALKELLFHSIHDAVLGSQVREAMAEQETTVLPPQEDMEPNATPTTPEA

Row | SMILES | whole-cell patch clamp, oxalate-chloride counter-transport current, CHO cells (zPres [1]) | whole-cell patch clamp, non-linear capacitance, CHO cells (zPres [2]) | voltage-clamp fluorometry, Xenopus oocytes (rPres)
1 | O=C(O)C(=O)O [oxalate] | monitored as the electrogenic oxalate-chloride counter-transport current by whole-cell patch-clamping |  | 
2 | O=C(O)c1ccccc1O [salicylate] |  | NLC recorded from cells expressing zPres was readily inhibited by salicylate | salicylate, suppressed the voltage-dependent fluorescence signals of rPres-R150C-TAMRA
